For this experiment, the target named is T1, thrombin (Homo sapiens, UniProt P00734).
T1 construct: consists of two polypeptide chains of 36 (light chain) and 259 amino acid
Briefly: Thrombin inhibition screen of crude macrocycle reactions (residual thrombin activity, fluorogenic substrate Z-Gly-Gly-Arg-AMC). In kind it is biochemical. The settings on record: 10 µM macrocycle concentration; for % thrombin activity, Original screen / % thrombin activity, Repeat screen: macrocycles containing acid 14, crude reaction; for % thrombin activity, Repeat screen: replicate reaction and screen; for percent residual thrombin activity: crude reactions, Library 1a-l, scaffold AA1-AA2-AA3 combined with 1-16 or '-'. An outline of the steps:
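Residual activity was measured as the AMC release rate after adding 50 μM Z-Gly-Gly-Arg-AMC. This followed a 10-min room-temperature preincubation of 2 nM thrombin with 10 μM single macrocycles in pH 7.4 Tris buffer (0.6% DMSO). Percent inhibition was taken against the mean slope of DMSO controls.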

SMILES strings stand for the structures. Numbered stars: 1 amine (or outer) side, 2 acyl side, 3 side chain; on linkers, the order of the positions; unused ones are H or OH. Bridge positions count the residues as written; N and C are the ends. Square brackets hold non-standard residues; d marks the D form. Peptide text beside a SMILES is read from it. * marks the point of attachment. Isoorotoyl = O=C(c1c[nH]c(=O)[nH]c1=O)*; 2Thenoyl(5-Cl) = O=C(c1ccc(Cl)s1)*; Phenoxyacetyl = O=C(COc1ccccc1)*; Cysteamide = C(CS[*:3])N[*:1]; Isovaleryl = CC(C)CC(=O)*; Orn = NCCC[CH](N)C(=O)O; dDap = NC[C@@H](N)C(=O)O; Api = NC1(C(=O)O)CCNCC1; Dap = NC[C@H](N)C(=O)O; Bz = O=C(c1ccccc1)*; βAla = NCCC(=O)O; Mpa = O=C(O)CCS

With `O=C1CCSSCCNC(=O)C2CCCN2C(=O)C(Cc2ccc(O)cc2)NC(=O)C(CCCNC(=O)c2ccc(Cl)s2)N1` (centres unmarked) [X D2 Y B1] ([Mpa][Orn](2Thenoyl(5-Cl))YP-Cysteamide; disulfide 1-C; configuration not given here), the “% thrombin activity, Original screen” value worked out at 96.4% and the “% thrombin activity, Repeat screen” value is on record as 96.3%.

Take `O=C1CCSSCCNC(=O)C2(CCN(C(=O)c3ccc(Cl)s3)CC2)NC(=O)[C@@H]2CCCN2C(=O)[C@@H](CO)N1` [X s B1 D6] ([Mpa][dS]P[Api](2Thenoyl(5-Cl))-Cysteamide; disulfide 1-C): the “% thrombin activity, Original screen” value is recorded as 104.7% and the “% thrombin activity, Repeat screen” value was 110.4%.

`CC[C@H](C)[C@@H]1NC(=O)[C@H](CNC(=O)c2ccc(Cl)s2)NC(=O)CCSSCCNC(=O)c2ccc(cc2)CNC1=O` [X D3 I B3]: the “% thrombin activity, Original screen” value is 87.6% and the “% thrombin activity, Repeat screen” value was determined as 88.8%.

With `COc1ccc(C(=O)NCCC[C@@H]2NC(=O)CCNC(=O)CCSSCCNC(=O)[C@H](Cc3ccc(O)cc3)NC2=O)cn1` [B2-D2-Y/10], the “percent residual thrombin activity” value turned out to be 105.275%.

As to `NC(=O)CC[C@@H]1NC(=O)C2(CCN(C(=O)c3ccc(Cl)s3)CC2)NC(=O)[C@@H]2CCCN2C(=O)CCSSCCNC1=O` [X B1 D6 Q] ([Mpa]P[Api](2Thenoyl(5-Cl))Q-Cysteamide; disulfide 1-C), the “% thrombin activity, Original screen” value was found to be 91.7% and the “% thrombin activity, Repeat screen” value was 93.5%.

Consider `O=C1CCSSCCNC(=O)[C@@H](Cc2ccccc2)NC(=O)c2ccc(cc2)CNC(=O)[C@H](CNC(=O)c2ccc(Cl)s2)N1` [X D3 B3 f], for which the “% thrombin activity, Original screen” value came to 77.4% and the “% thrombin activity, Repeat screen” value stood at 84.4%.

Regarding `CC(C)CC1NC(=O)C(CCCNC(=O)c2ccc(Cl)s2)NC(=O)C2(CC2)CNC(=O)CCSSCCNC1=O` (centres unmarked) [X B6 D2 L], the “% thrombin activity, Original screen” value is 107.3% and the “% thrombin activity, Repeat screen” value came out at 102.8%.

As for `O=C(COc1ccccc1)NCCC[C@@H]1NC(=O)CCSSCCNC(=O)c2ccc(cc2)CNC(=O)[C@H](Cc2c[nH]c3ccccc23)NC1=O` [D2-W-B3/13], the “percent residual thrombin activity” value is reported as 117.613%.

Take `CC[C@H](C)[C@@H]1NC(=O)[C@H](CCCNC(=O)Cc2c[nH]c3ccccc23)NC(=O)c2cccc(c2)CNC(=O)CCSSCCNC1=O` [B5-D2-I/12]: the “percent residual thrombin activity” value is reported as 103.906%.

In the case of `NC(=O)CC[C@@H]1NC(=O)CCSSCCNC(=O)C2(CCN(C(=O)c3ccc(Cl)s3)CC2)NC(=O)CCNC1=O` [X Q B2 D6], the “% thrombin activity, Original screen” value was 97.4% and the “% thrombin activity, Repeat screen” value was 98.1%.

Take `O=C(Cc1c[nH]c2ccccc12)NCCCCC1NC(=O)CCSSCCNC(=O)C(Cc2ccc(O)cc2)NC(=O)C2CCCN(C2)C1=O` (centres unmarked) [D1-B4-y/12]: the “percent residual thrombin activity” value is recorded as 103.012%.

On to `NC(=O)CC[C@@H]1NC(=O)[C@H](CCCCNC(=O)c2c[nH]c(=O)[nH]c2=O)NC(=O)CCSSCCNC(=O)[C@@H]2CCCN2C1=O` [D1-Q-B1/11] ([Mpa]K(Isoorotoyl)QP-Cysteamide; disulfide 1-C), for which the “percent residual thrombin activity” value is recorded as 109.119%.

Consider `O=C1CCSSCCNC(=O)[C@H](Cc2ccc(O)cc2)NC(=O)[C@H](CCCNC(=O)Cc2c[nH]c3ccccc23)NC(=O)C2(CC2)CN1` [B6-D2-Y/12], for which the “percent residual thrombin activity” value came out at 103.867%.

For `Cc1nnsc1C(=O)NCCCC[C@@H]1NC(=O)CCSSCCNC(=O)C2(CC2)CNC(=O)[C@H](C(C)C)NC1=O` [D1-V-B6/15], the “percent residual thrombin activity” value is listed as 112.935%.

Consider `COc1ccc(C(=O)NCCC[C@@H]2NC(=O)[C@H]3CCCN(C3)C(=O)[C@H](CC(C)C)NC(=O)CCSSCCNC2=O)cn1` [L-B4-D2/10], for which the “percent residual thrombin activity” value is 107.664%.

Regarding `O=C1CCSSCCNC(=O)c2ccc(cc2)CNC(=O)[C@H](Cc2c[nH]c3ccccc23)NC(=O)[C@H](CCCNC(=O)c2c[nH]c(=O)cn2)N1` [D2-W-B3/9], the “percent residual thrombin activity” value was 111.429%.

Regarding `O=C1CCSSCCNC(=O)[C@H](Cc2ccc(O)cc2)NC(=O)c2cccc(c2)CNC(=O)[C@H](CCCNC(=O)c2ccc(Cl)s2)N1` [X D2 B5 Y], the “% thrombin activity, Original screen” value is 78.2% and the “% thrombin activity, Repeat screen” value was determined as 66.2%. Moreover, for the setting “listed as X D2 B5 y”, the “% thrombin activity, Original screen” value came to 82.3% and the “% thrombin activity, Repeat screen” value was 75.1%.

With `O=C1CCSSCCNC(=O)[C@@H]2CCCN2C(=O)[C@@H](Cc2c[nH]c3ccccc23)NC(=O)[C@@H](CNC(=O)c2ccc(Cl)s2)N1` [X D4 w B1] ([Mpa][dDap](2Thenoyl(5-Cl))[dW]P-Cysteamide; disulfide 1-C), the “% thrombin activity, Original screen” value is recorded as 68.9% and the “% thrombin activity, Repeat screen” value turned out to be 70.9%.

For `O=C1CCSSCCNC(=O)[C@H](Cc2ccc(O)cc2)NC(=O)[C@H](CCCNC(=O)c2ccco2)NC(=O)CCN1` [B2-D2-Y/16], the “percent residual thrombin activity” value was found to be 116.586%.

On to `CC(C)[C@H]1NC(=O)c2cccc(c2)CNC(=O)[C@H](CCCNC(=O)c2ccc(Cl)s2)NC(=O)CCSSCCNC1=O` [D2-B5-v/14], for which the “percent residual thrombin activity” value is on record as 98.5757%.

Take `CC(C)CC1NC(=O)C2CC(NC(=O)c3ccc(Cl)s3)CN2C(=O)CCSSCCNC(=O)C2CCCN(C2)C1=O` (centres unmarked) [X D5 L B4]: the “% thrombin activity, Original screen” value stood at 94.2% and the “% thrombin activity, Repeat screen” value is given as 89.4%.

On to `Cc1cc(C(=O)NCCC[C@@H]2NC(=O)CCSSCCNC(=O)[C@H](Cc3cnc[nH]3)NC(=O)c3cccc(c3)CNC2=O)no1` [D2-B5-H/3], for which the “percent residual thrombin activity” value is listed as 99.7053%.

In the case of `O=C1CCSSCCNC(=O)[C@H](Cc2ccc(O)cc2)NC(=O)[C@H](CCCNC(=O)c2c[nH]c(=O)cn2)NC(=O)C2(CC2)CN1` [B6-D2-Y/9], the “percent residual thrombin activity” value is given as 103.418%.

Regarding `O=C(NC[C@H]1NC(=O)[C@@H](CO)NC(=O)[C@H]2CCCN(C2)C(=O)CCSSCCNC1=O)c1ccc(Cl)s1` [X B4 s D4], the “% thrombin activity, Original screen” value was 104.5% and the “% thrombin activity, Repeat screen” value is listed as 106.7%.

Turning to `NCCCC[C@@H]1NC(=O)c2cccc(c2)CNC(=O)[C@H](Cc2cnc[nH]2)NC(=O)CCSSCCNC1=O` [H-B5-D1/-], the “percent residual thrombin activity” value is given as 101.253%.

Take `CC(C)C[C@@H]1NC(=O)[C@H]2CCCN(C2)C(=O)CCSSCCNC(=O)[C@@H](CNC(=O)c2ccc(Cl)s2)NC1=O` [X B4 L D4]: the “% thrombin activity, Original screen” value is on record as 97.0% and the “% thrombin activity, Repeat screen” value is listed as 93.7%.

As for `Cc1nnsc1C(=O)NCCCC[C@@H]1NC(=O)[C@@H](Cc2ccc(O)cc2)NC(=O)c2ccc(cc2)CNC(=O)CCSSCCNC1=O` [B3-y-D1/15], the “percent residual thrombin activity” value is given as 112.065%.

Turning to `CC(C)CC(=O)NCCCC[C@@H]1NC(=O)[C@@H](Cc2c[nH]c3ccccc23)NC(=O)[C@H]2CCCN(C2)C(=O)CCSSCCNC1=O` [B4-W-D1/8], the “percent residual thrombin activity” value is reported as 98.2761%.

Turning to `CC(C)CC(=O)NCCCC[C@@H]1NC(=O)CCSSCCNC(=O)[C@H](CO)NC(=O)c2ccc(cc2)CNC1=O` [D1-B3-S/8], the “percent residual thrombin activity” value is given as 103.332%.

For `CCC(C)C1NC(=O)C(CCCCNC(=O)c2ccc(Cl)s2)NC(=O)CCSSCCNC(=O)C2(CC2)CNC1=O` (centres unmarked) [X D1 I B6], the “% thrombin activity, Original screen” value stood at 91.0% and the “% thrombin activity, Repeat screen” value was 93.6%.

`O=C(COc1ccccc1)NCCCC[C@@H]1NC(=O)[C@H](Cc2c[nH]c3ccccc23)NC(=O)CCSSCCNC(=O)[C@@H]2CCCN2C1=O` [W-D1-B1/13] ([Mpa]WK(Phenoxyacetyl)P-Cysteamide; disulfide 1-C): the “percent residual thrombin activity” value was found to be 96.359%.

As to `O=C1CCSSCCNC(=O)[C@H](CCCCNC(=O)c2ccco2)NC(=O)c2cccc(c2)CNC(=O)[C@H](CO)N1` [S-B5-D1/16], the “percent residual thrombin activity” value came to 112.778%.

In the case of `NCCC[C@@H]1NC(=O)CCSSCCNC(=O)[C@H](Cc2ccc(O)cc2)NC(=O)c2cccc(c2)CNC1=O` [D2-B5-Y/-], the “percent residual thrombin activity” value was 110.083%.

Regarding `O=C1CCSSCCNC(=O)[C@H](Cc2ccc(O)cc2)NC(=O)[C@H](CCCCNC(=O)c2c[nH]c(=O)cn2)NC(=O)c2ccc(cc2)CN1` [B3-D1-Y/9], the “percent residual thrombin activity” value was determined as 101.633%.

Regarding `COc1ccc(C(=O)NCCC[C@@H]2NC(=O)CCSSCCNC(=O)[C@H](Cc3ccc(O)cc3)NC(=O)c3cccc(c3)CNC2=O)cn1` [D2-B5-Y/10], the “percent residual thrombin activity” value was found to be 96.9489%.

Turning to `CC(C)C[C@@H]1NC(=O)CCSSCCNC(=O)[C@H](CCCCNC(=O)c2ccc(Cl)s2)NC(=O)C2(CC2)CNC1=O` [X L B6 D1], the “% thrombin activity, Original screen” value is recorded as 94.8% and the “% thrombin activity, Repeat screen” value amounted to 97.2%.

For `CC(C)CC(=O)NCCC[C@@H]1NC(=O)[C@H](CO)NC(=O)[C@@H]2CCCN2C(=O)CCSSCCNC1=O` [B1-s-D2/8] ([Mpa]PS[Orn](Isovaleryl)-Cysteamide; disulfide 1-C), the “percent residual thrombin activity” value was 104.868%.

With `CC[C@H](C)[C@@H]1NC(=O)CCSSCCNC(=O)[C@H](CNC(=O)c2ccc(Cl)s2)NC(=O)[C@@H]2CCCN2C1=O` [X I B1 D3] ([Mpa]IP[Dap](2Thenoyl(5-Cl))-Cysteamide; disulfide 1-C), the “% thrombin activity, Original screen” value was determined as 91.3% and the “% thrombin activity, Repeat screen” value came to 90.1%.

With `CC(C)C[C@@H]1NC(=O)CCNC(=O)CCSSCCNC(=O)[C@H](CCCNC(=O)c2ccccc2)NC1=O` [B2-L-D2/1] ([Mpa][βAla]L[Orn](Bz)-Cysteamide; disulfide 1-C), the “percent residual thrombin activity” value is listed as 106.68%.

The values above are taken from paper PMC9250534, “Synthesis and direct assay of large macrocycle diversities by combinatorial late-stage modification at picomole scale” (Nature Communications, 2022).
